Measured values as given in ChEMBL document CHEMBL6153040, “Discovery of the salicylaldehyde-based compound DDO-02267 as a lysine-targeting covalent inhibitor of ALKBH5” (Eur J Med Chem, 2025).
The source made the active and inactive calls. The calls are words filed in the database; no cut-off is given here.

Assays:
[1] = biological target: T1, Alpha-ketoglutarate-dependent dioxygenase alkB homolog 3 (Homo sapiens, UniProt Q96Q83); test: Inhibition of ALKBH3 (unknown origin) by restriction enzyme digestion method
T1 sequence (Q96Q83 whole entry): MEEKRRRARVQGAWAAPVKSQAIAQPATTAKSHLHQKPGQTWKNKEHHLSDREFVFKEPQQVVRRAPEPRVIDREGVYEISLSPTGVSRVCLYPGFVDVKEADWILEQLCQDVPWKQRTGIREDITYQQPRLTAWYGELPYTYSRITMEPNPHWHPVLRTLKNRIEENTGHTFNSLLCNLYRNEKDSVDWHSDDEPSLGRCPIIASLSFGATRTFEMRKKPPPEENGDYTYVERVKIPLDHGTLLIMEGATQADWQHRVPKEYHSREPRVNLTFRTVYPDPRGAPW

RNA demethylase ALKBH5 [2] = biological target: T2, RNA demethylase ALKBH5 (Homo sapiens, UniProt Q6P6C2); test: Binding affinity to ALKBH5 (66 to 292 residues) (unknown origin) extracted from Escherichia coli BL21 (DE3) cells assessed as dissociation constant incubated for 1.5 hrs by MST analysis
Target sequence in this assay (Q6P6C2 whole entry, the tested form may be a part): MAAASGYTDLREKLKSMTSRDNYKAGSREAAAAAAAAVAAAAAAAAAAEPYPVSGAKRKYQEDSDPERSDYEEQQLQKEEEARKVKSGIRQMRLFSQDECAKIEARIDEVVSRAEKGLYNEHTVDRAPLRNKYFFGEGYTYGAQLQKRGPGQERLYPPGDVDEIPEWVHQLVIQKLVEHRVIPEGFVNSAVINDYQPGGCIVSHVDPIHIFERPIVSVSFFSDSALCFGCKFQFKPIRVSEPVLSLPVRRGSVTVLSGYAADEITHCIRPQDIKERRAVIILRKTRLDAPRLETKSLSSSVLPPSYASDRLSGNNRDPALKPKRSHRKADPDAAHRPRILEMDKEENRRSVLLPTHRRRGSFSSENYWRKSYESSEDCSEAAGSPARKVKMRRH

[3] = Selectivity ratio of IC50 for ALKBH3 (unknown origin) to IC50 for ALKBH5 (66 to 292 residues) (unknown origin) extracted from Escherichia coli BL21 (DE3) cells by fluorescence polarization assay
MOLM-13 [4] = test: Induction of apoptosis in human MOLM-13 cells assessed as early apoptotic cells at 40 uM incubated for 72 hrs by Annexin V FITC/PI staining based flow cytometry analysis (reference value: 4.32%); format: functional
RNA demethylase ALKBH5 [5] = biological target: T2, RNA demethylase ALKBH5; test: Time-dependent inhibition of ALKBH5 (66 to 292 residues) (unknown origin) demethylation activity extracted from Escherichia coli BL21 (DE3) cells using m6A ssDNA as substrate at 1 to 10 uM by TBE-PAGE based restriction enzyme digestion assay; details: dose 1-10 µM, time 0.5-2 hrs
Target sequence in this assay (Q6P6C2 2-394 limits assumed): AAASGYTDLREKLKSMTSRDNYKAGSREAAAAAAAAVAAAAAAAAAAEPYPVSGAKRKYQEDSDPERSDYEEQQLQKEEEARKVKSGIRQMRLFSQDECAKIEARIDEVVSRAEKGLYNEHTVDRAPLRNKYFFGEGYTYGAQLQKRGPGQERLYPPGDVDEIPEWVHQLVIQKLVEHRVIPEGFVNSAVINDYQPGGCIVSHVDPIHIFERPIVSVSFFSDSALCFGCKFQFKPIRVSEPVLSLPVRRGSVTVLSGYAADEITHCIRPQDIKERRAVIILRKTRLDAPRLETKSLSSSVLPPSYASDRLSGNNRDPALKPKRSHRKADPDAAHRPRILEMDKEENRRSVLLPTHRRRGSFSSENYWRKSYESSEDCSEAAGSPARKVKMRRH

RNA demethylase ALKBH5 [6] = biological target: T2, RNA demethylase ALKBH5; test: Binding affinity to ALKBH5 (66 to 292 residues) (unknown origin) extracted from Escherichia coli BL21 (DE3) cells assessed as dissociation constant incubated for 1 hrs by MST analysis
Target sequence in this assay (Q6P6C2 whole entry, the tested form may be a part): as the sequence (Q6P6C2 whole entry, the tested form may be a part) above

MV4-11 = test: Downregulation of AXL mRNA expression levels in human MV4-11 cells at 10 to 80 uM incubated for 72 hrs by qRT-PCR analysis; format: functional, cell-based; details: dose 10-80 µM
RNA demethylase ALKBH5 [7] = biological target: T2, RNA demethylase ALKBH5; test: Potency index, ratio of 2-(((2-nitrophenyl)sulfonyl)carbamoyl)isonicotinic acid IC50 to test compound IC50 for inhibition of ALKBH5 (66 to 292 residues) (unknown origin) extracted from Escherichia coli BL21 (DE3) cells using m6A ssDNA as substrate measured after 1 hrs by fluorescence polarization assay
Target sequence in this assay (Q6P6C2 2-394 limits assumed): as the sequence (Q6P6C2 2-394 limits assumed) above

[8] = biological target: T3, Alpha-ketoglutarate-dependent dioxygenase FTO (Homo sapiens, UniProt Q9C0B1); test: Binding affinity to FTO (32 to 505 residues) (unknown origin) extracted from Escherichia coli BL21 (DE3) cells assessed as dissociation constant by ITC assay
Target sequence in this assay (Q9C0B1 whole entry, the tested form may be a part): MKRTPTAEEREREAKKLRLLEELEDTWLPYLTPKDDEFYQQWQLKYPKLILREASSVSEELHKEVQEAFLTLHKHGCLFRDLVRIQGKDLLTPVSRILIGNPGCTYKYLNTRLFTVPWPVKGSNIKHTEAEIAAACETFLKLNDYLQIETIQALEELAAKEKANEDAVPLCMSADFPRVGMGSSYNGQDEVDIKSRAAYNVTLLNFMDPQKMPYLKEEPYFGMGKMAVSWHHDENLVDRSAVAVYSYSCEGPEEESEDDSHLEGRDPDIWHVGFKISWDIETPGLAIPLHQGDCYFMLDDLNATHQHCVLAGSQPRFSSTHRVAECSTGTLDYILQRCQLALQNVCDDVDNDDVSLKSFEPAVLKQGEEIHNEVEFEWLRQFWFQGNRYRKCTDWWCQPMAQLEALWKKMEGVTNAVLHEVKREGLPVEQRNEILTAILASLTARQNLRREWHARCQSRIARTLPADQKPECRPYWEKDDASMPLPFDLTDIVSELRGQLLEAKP

RNA demethylase ALKBH5 [9] = biological target: T2, RNA demethylase ALKBH5; test: Inhibition of ALKBH5 in human MV4-11 cells assessed as increase in m6A methylation levels by dot blot assay; format: cell-based
Target sequence in this assay (Q6P6C2 2-394 limits assumed): as the sequence (Q6P6C2 2-394 limits assumed) above

RNA demethylase ALKBH5 [10] = biological target: T2, RNA demethylase ALKBH5; test: Inhibition of ALKBH5 (66 to 292 residues) (unknown origin) extracted from Escherichia coli BL21 (DE3) cells using m6A ssDNA as substrate measured after 240 mins by fluorescence polarization assay
Target sequence in this assay (Q6P6C2 whole entry, the tested form may be a part): as the sequence (Q6P6C2 whole entry, the tested form may be a part) above

[11] = test system: RNA demethylase ALKBH5 (Homo sapiens), Q6P6C2 [K132E]; test: Induction of thermal stabilization of ALKBH5 K132E mutant (66 to 292 residues) (unknown origin) extracted from Escherichia coli BL21 (DE3) cells assessed as melting temperature by thermal shift assay (reference value: 47.05 degreeC)
[12] = test system: RNA demethylase ALKBH5 (Homo sapiens), Q6P6C2 [K132E]; test: Induction of thermal stabilization of ALKBH5 K132E mutant (66 to 292 residues) (unknown origin) extracted from Escherichia coli BL21 (DE3) cells assessed as change in melting temperature by thermal shift assay
RNA demethylase ALKBH5 [13] = biological target: T2, RNA demethylase ALKBH5; test: Binding affinity to ALKBH5 (66 to 292 residues) (unknown origin) extracted from Escherichia coli BL21 (DE3) cells assessed as dissociation constant incubated for 5 hrs by MST analysis
Target sequence in this assay (Q6P6C2 whole entry, the tested form may be a part): as above

RNA demethylase ALKBH5 [14] = biological target: T2, RNA demethylase ALKBH5; test: Inhibition of ALKBH5 (66 to 292 residues) (unknown origin) extracted from Escherichia coli BL21 (DE3) cells using m6A ssDNA as substrate measured after 6 hrs by fluorescence polarization assay
Target sequence in this assay (Q6P6C2 whole entry, the tested form may be a part): as above

RNA demethylase ALKBH5 [15] = biological target: T2, RNA demethylase ALKBH5; test: Inhibition of ALKBH5 (66 to 292 residues) (unknown origin) extracted from Escherichia coli BL21 (DE3) cells using m6A ssDNA as substrate at 1.25 to 10 uM incubated for 2 hrs in presence of 2-OG by TBE-PAGE based restriction enzyme digestion assay; details: dose 1.25-10 µM
Target sequence in this assay (Q6P6C2 2-394 limits assumed): as the sequence (Q6P6C2 2-394 limits assumed) above

MOLM-13 [16] = test: Induction of cell cycle arrest in human MOLM-13 cells assessed as accumulation of cells at G0/G1 phase at 80 uM incubated for 72 hrs by flow cytometry analysis (reference value: 65.53 %); format: functional
RNA demethylase ALKBH5 [17] = biological target: T2, RNA demethylase ALKBH5; test: Inhibition of ALKBH5 (66 to 292 residues) (unknown origin) demethylase activity extracted from Escherichia coli BL21 (DE3) cells at 200 uM preincubated for 3 hrs and measured after compound washout by small molecule dilution method
Target sequence in this assay (Q6P6C2 2-394 limits assumed): as above

MOLM-13 [18] = test: Induction of cell cycle arrest in human MOLM-13 cells assessed as accumulation of cells at G0/G1 phase at 40 uM incubated for 72 hrs by flow cytometry analysis (reference value: 65.53 %); format: functional
MOLM-13 [19] = test: Induction of apoptosis in human MOLM-13 cells assessed as necrotic cells at 40 uM incubated for 72 hrs by Annexin V FITC/PI staining based flow cytometry analysis (reference value: 1.75 %); format: functional
[20] = Selectivity ratio of IC50 for FTO (32 to 505 residues) (unknown origin) extracted from Escherichia coli BL21 (DE3) cells to IC50 for ALKBH5 (66 to 292 residues) (unknown origin) extracted from Escherichia coli BL21 (DE3) cells by restriction enzyme digestion assay
RNA demethylase ALKBH5 [21] = biological target: T2, RNA demethylase ALKBH5; test: Inhibition of ALKBH5 (66 to 292 residues) (unknown origin) extracted from Escherichia coli BL21 (DE3) cells using m6A ssDNA as substrate measured after 2 hrs by fluorescence polarization assay
Target sequence in this assay (Q6P6C2 whole entry, the tested form may be a part): as the sequence (Q6P6C2 whole entry, the tested form may be a part) above

RNA demethylase ALKBH5 [22] = biological target: T2, RNA demethylase ALKBH5; test: Induction of thermal stabilization of ALKBH5 in human MOLM-13 cells at 20 uM incubated for 30 min and measured after 3 mins incubation under 45 to 65 degreeC by […] assay; format: cell-based; details: time 33.0 min
Target sequence in this assay (Q6P6C2 2-394 limits assumed): as the sequence (Q6P6C2 2-394 limits assumed) above

MOLM-13 [23] = test: Downregulation of AXL protein expression levels in human MOLM-13 cells at 20 to 80 uM incubated for 72 hrs by Western blot analysis; format: functional, cell-based; details: dose 20-80 µM
[24] = biological target: T3, Alpha-ketoglutarate-dependent dioxygenase FTO; test: Induction of thermal stabilization of FTO (32 to 505 residues) (unknown origin) extracted from Escherichia coli BL21 (DE3) cells assessed as change in melting temperature by thermal shift assay
Target sequence in this assay (Q9C0B1 whole entry, looked up, the tested form may be a part): as the sequence (Q9C0B1 whole entry, the tested form may be a part) above

MOLM-13 [25] = test: Induction of apoptosis in human MOLM-13 cells assessed as necrotic cells at 80 uM incubated for 72 hrs by Annexin V FITC/PI staining based flow cytometry analysis (reference value: 1.75 %); format: functional
RNA demethylase ALKBH5 [26] = biological target: T2, RNA demethylase ALKBH5; test: Binding affinity to ALKBH5 (66 to 292 residues) (unknown origin) extracted from Escherichia coli BL21 (DE3) cells assessed as dissociation constant incubated for 4 hrs by MST analysis

Sequence of RNA demethylase ALKBH5 (Homo sapiens), Q6P6C2 [K132E] (Q6P6C2 whole entry K132E, the tested form may be a part): as the sequence (Q6P6C2 whole entry, the tested form may be a part) above, with K132E counted along it

O=Cc1cc(S(=O)(=O)NC(=O)c2cc(C(=O)O)ccn2)c2ccccc2c1O
IC50 [1]: 75400 nM
Kd (RNA demethylase ALKBH5 [2]): 1140 nM
Ratio IC50 [3]: 20
Activity (MOLM-13 [4]): 10.4%
TDI (RNA demethylase ALKBH5 [5]): Active
Kd (RNA demethylase ALKBH5 [6]): 2630 nM
Activity (MV4-11): Active
Ratio IC50 (RNA demethylase ALKBH5 [7]): 287
Kd [8]: 27600 nM
inhibition (RNA demethylase ALKBH5 [9]): Active
IC50 (RNA demethylase ALKBH5 [10]): 260 nM
Tm [11]: 46.1 °C
ΔTm [12]: < 1 °C
Kd (RNA demethylase ALKBH5 [13]): 560 nM
IC50 (RNA demethylase ALKBH5 [14]): 170 nM
inhibition (RNA demethylase ALKBH5 [15]): Active
Activity (MOLM-13 [16]): 73.67%
inhibition (RNA demethylase ALKBH5 [17]): Active
Activity (MOLM-13 [18]): 68.23%
Activity (MOLM-13 [19]): 2.03%
Ratio IC50 [20]: 10
IC50 (RNA demethylase ALKBH5 [21]): 350 nM
Activity (RNA demethylase ALKBH5 [22]): Active
Activity (MOLM-13 [23]): Active
ΔTm [24]: < 1 °C
Activity (MOLM-13 [25]): 1.2%
Kd (RNA demethylase ALKBH5 [26]): 650 nM
